In US10718028B2, “Fluorescent probes for abasic site detection” (CASE WESTERN RESERVE UIVERSITY, priority 2015, dated 2020):

Columns and labels:
DLD1 cells = assay: ARP analysis of FUDR treated DLD1 DNA; format: cell-based; conditions: ARP-based DNA Damage Quantification Kit, same DNA samples
Description: DNA aliquots (10 μL) from above were diluted in TE buffer (10 μL). DNA concentrations were measured on a Nanodrop 1000 and adjusted to 100 μg/mL in TE buffer. Samples were prepared for ARP analysis using the ARP DNA Damage Quantification Kit (Dojindo #DK02-12). Samples were prepared and analyzed according to the manufacturer's instructions.

[1] = tested on: AP sites in calf thymus DNA; assay: MX or ARP and Cy7MX genomic DNA competition assay; format: binding
Description: Calf thymus DNA was purchased from Sigma and was reconstituted overnight at 4° C. in either H2O or 500 mM MX (to eliminate basal AP sites) with gentle shaking (1.5 mL water or solution per 5 mg DNA). For samples reconstituted in MX solution, an ethanol precipitation was performed twice before heat and acid treatment (vide infra) then reconstituted in water. The DNA-water solution was aliquoted to 1.5 mL Eppendorf tubes (360 μL) and 10× Citrate buffer (1M NaCl, 100 μM monosodium phosphate, 100 μM monosodium citrate, pH 5.0) was added to a final concentration of 1×. For t=0 min samples, ice-cold 100% EtOH (1.0 mL) was added immediately and the Eppendorf tubes stored at −20° C. Other samples were placed in a 70° C. heating block for 15-90 minutes in 15-minute increments. Samples were removed from heat, precipitated in ice-cold 100% EtOH (1.0 mL), and then chilled at −20° C. for at least 20 minutes. Samples were centrifuged at 12,000×G for 10 min at 4° C. The supernatant was discarded. The process was repeated once beginning with the addition of EtOH (1.0 mL). The DNA pellet was dissolved in 700 μL H2O or TE buffer. Aliquots of 80 μL were put in 1.5 mL Eppendorf tubes. Any samples not used immediately were stored at −80° C.
Solutions of MX and Cy7MX were prepared in H2O varying [MX] from 0-1.9 M and maintaining at 25 μM. […] The ratios of MX:Cy7MX used in this study were: 0, 0.01, 0.1, 0.5, 1, 5, 10, 50, 100, 250, 500, 1000, 2500, 5000, 10000, 25000, 50000, and 75000. […] The following samples were prepared in triplicate: 20 μL of MX/Cy7MX solution was added to 80 μL aliquots of heat/acid treated DNA (t=45 min). Samples were incubated for 1 h at 37° C. in the dark. Ice-cold EtOH (1.0 mL) was added and the DNA was purified by EtOH precipitation three times as described in the heat/acid treatment of genomic DNA section. DNA was dissolved in 150 μL H2O. Aliquots (125 μL) of the samples were added to a black, clear-bottom 96 well plate (Corning) and analyzed with 750 nm excitation and 800 nm emission. Fluorescence was adjusted to DNA concentration.
As before (section 2.3.2) except solutions of ARP and Cy7MX were prepared in H2O varying [ARP] from 0-75 mM and maintaining at 1 μM. The ratios of ARP: Cy7MX used in this study were: 0, 0.1, 1, 10, 100, 500, 1000, 5000, 10000, 25000, 50000, and 75000.

Structure (SMILES): NOCC(=O)NNC(=O)CCCC[C@@H]1SC[C@@H]2NC(=O)N[C@@H]21 [ARP]
- background and sensitivity of AP site detection (DLD1 cells): larger background and lower sensitivity than compound Cy7MX
- ED50 of Cy7MX, excess of competitor ([1]; 1 h at 37° C., constant Cy7MX): 2600 × excess
- ED50, molar ratio of probe to Cy7MX ([1]; calf thymus DNA heat/acid 45 min, FIG. 13): 2600 fold excess
